We go through three molecules from paper PMC5267425, “Identification of small molecule modulators of HIV-1 Tat and Rev protein accumulation” (Retrovirology, 2017).

What all share (format): cell-based
Series [1] concerns Nap1. As to the kind of experiment: Western blot of Nap1. The note with it: 791 30 µM, 833 2 µM, 892 15 µM, 24 h. As to the method: ELISA for p24 Gag antigen was performed on cell supernatants using kits purchased from Frederick National Laboratory for Cancer Research (Leidos) or XpressBio extended range kit and performed according to manufacturer’s instructions. Protein concentration in cell lysates was quantified by Bradford assay and equal amounts of protein run on 7, 10, 12, or 14% SDS-PAGE, depending on the protein of interest. Following transfer to PVDF (BioRad or Perkin-Elmer), blots were blocked in either 5% Milk-PBS-T (5% Milk, 0.05% Tween-20, 1× PBS) or 3% BSA-PBS-T (3% BSA, 0.05% Tween-20, 1× PBS) prior to incubating with primary antibody (all diluted in 3% BSA-PBS-T). Primary antibodies used were: purified mouse anti-p24 supernatant from anti-HIV-1 Gag hybridoma 183, mouse anti-gp120 hybridoma 902 (NIH AIDS Reagent Program), mouse monoclonal antibody to HIV-1 Rev (Abcam), rabbit polyclonal antibody to HIV-1 Tat (Abcam), mouse monoclonal antibody to p53 (Santa Cruz), rabbit purified IgG for Nap1 (provided by L. Frappier), rabbit polyclonal antibody to GAPDH (Sigma-Aldrich), or mouse monoclonal antibody to α-Tubulin (Sigma-Aldrich). Following incubation with appropriate secondary antibody, blots were visualized by ECL, ECL Plus (Perkin-Elmer), or Clarity Western ECL substrate (BioRad). Quantification of the relative intensity of the detected bands was done using ImageLab software and normalized to corresponding bands of the loading control (GAPDH or α-Tubulin).

The nature of series [2]: Trypan blue exclusion, HeLa. The note with it: human, HeLa rtTA HIV∆Mls cells. As to the method:
(§1) Effects of compound treatment on cellular metabolism was assessed by an XTT-based in vitro toxicology assay kit (Sigma-Aldrich) or Trypan blue exclusion (Life Technologies) as proxy for degree of cytotoxicity and expressed relative to DMSO control treatment. For measurement of cell viability using XTT, culture media was removed after 24, 72, and 96 h of compound treatment, replaced with 20% XTT solution and incubated at 37 °C in a 5% CO2 humidified incubator for 2–6 h, and relative cell viability was measured in compound treated cells relative to DMSO-treated cells. Cell viability measurements in CEM-GXR cells are described above.

Series [3] is described as follows: XTT cell metabolism/viability assay, HeLa. Conditions: human, HeLa rtTA HIV∆Mls cells. As to the method:
as §1

The subject of series [4] is HIV-1 clade A (N54), clade B (IIIB), PRI-, RTI- and INI-resistant strains. As to the kind of experiment: HIV-1 replication in CEM-GXR cells (GFP positive cells, flow cytometry). The note with it: for IC50: Human immunodeficiency virus 1, IIIB, CEM-GXR; for HIV-1 replication of all viruses tested: clade A N54, clade B IIIB, PRI-, RTI-, INI-resistant strains. The source says: Effects of compound treatment on HIV-1 gene expression were initially assessed in the context of HeLa rtTA HIV∆Mls cells stably transduced with an inducible Tet-On HIV-1 system (as previously described). The provirus was modified by either deletion in the reverse transcriptase and integrase region of the pol gene by an MlsI restriction digest (HeLa rtTA HIV∆Mls cell line) or GFP fusion to Gag, deleting the PR and RT-coding regions (HeLa rtTA HIVGagGFP cell line). […] All cell lines were maintained in Iscove’s modified Delbecco’s medium (IMDM; Wisent) supplemented with 10% (vol/vol) fetal bovine serum (FBS, Wisent), 1% penicillin/streptomycin (P/S, Wisent) and 0.2% Amphotericin B (Wisent). Indicator cell line CEM-GXR was obtained from Dr. Mark Brockman (Simon Fraser University). The RTI-resistant virus (E00443) was obtained from Dr. Zabrina Brumme (Simon Fraser University). The HIV-1 clade A (97USSN54 (N54)), HIV-1 clade B (IIIB), integrase inhibitor resistant virus (11845), protease inhibitor resistant virus (2948) were obtained through the NIH AIDS Research and Reference reagent program, Division of AIDS, NIAID, NIH).
To assess the activity of compounds against HIV-1 strains having resistance to various ART drugs, assays were performed in the context of CEM-GXR cells. These cells express CD4, CXCR4, and coreceptor, CCR5 as well as an exogenous Tat-driven LTR-GFP expression cassette. Cultures were infected with different HIV-1 strains of interest, differing on their subtypes (A and B), and resistance to three major drug targets (reverse transcriptase, protease, and integrase). The culture contains serial dilutions of the molecule in the final concentrations from 0.156 to 5 μM for 833; 725 nM to 46.87 μM for 791; 1.95 to 62.5 μM for 892. Antiviral activity was evaluated in the assay by measuring inhibition of HIV-1 spread in a coculture of CEM-GXR cells containing 1% of HIV-1 infected (GFP positive) cells using flow cytometric analysis (GuavaSoft 2.2 software, Guava HT8, Millipore). To estimate the viable cell counts, the gate in a flow cytometer (Guava HT8) was set to cover 95% of the freshly passaged uninfected CEM-GXR cell or using ViaCount™. The same parameter was employed to gate viable cells in the inhibition assay and the number of gated cells was obtained by GuavaSoft 2.2 software. For assays using ViaCount™, sample acquisition and data analysis were performed with the selection of EasyFit analysis feature using the ViaCount™ software module.

The subject of series [5] is HIV-1 BaL. The experiment in a line: HIV-1 BaL replication in PBMCs, p24 antigen ELISA. Conditions: for IC50: Human immunodeficiency virus 1, BAL, PBMC. As to the method: To examine the effect of compounds on viral replication, studies were carried out in peripheral blood mononuclear cells (PBMCs). PBMCs were isolated from healthy (HIV-uninfected) volunteer blood donors as described by Dobson-Belaire et al.. Informed consent was obtained from participants in accordance with the guidelines for conduct of clinical research at the University of Toronto and St. Michael’s Hospital, Toronto, Ontario, Canada. Stored PBMCs were thawed, washed with RPMI 1640 complete medium and cultured in RPMI 1640 complete medium containing 2 μg/mL of PHA-L (Sigma-Aldrich) and 20 U/mL of IL-2 (BD Pharmingen) for 72 h. Subsequently, cells were counted and a portion of the cells was separated to another tube for uninfected control treatments. The remaining PBMCs were resuspended in media containing HIV-1 BaL at a multiplicity of infection (MOI) of approximately 0.01 and infected by spinoculation, following which cells were washed twice with room temperature RPMI 1640 complete medium and resuspended to a concentration of 5 × 10^5 cells/mL in complete RPMI 1640 containing 20 U/mL of IL-2. Compounds were added to infected PBMCs or uninfected control PBMCs. Azidothymidine (AZT, Sigma-Aldrich) was used as control treatment at a final concentration of 3.74 μM. On day 4 post infection, culture medium was replenished with the compounds and IL-2 in fresh complete RPMI 1640. On days 2, 4, 6 and 8 post infection, culture supernatant was harvested, virus lysed by adjusting to 1% TritonX-100 and stored at −20 °C for p24 antigen ELISA. A fraction of the culture was harvested to assess percent cell viability by trypan blue exclusion using Glasstic slides (Kova). Relative percent cell viability in compound treated samples versus DMSO-control treated samples was calculated as follows: (total viable cells/total cells)compound/(total viable cells/total cells)DMSO.
ELISA for p24 Gag antigen was performed on cell supernatants using kits purchased from Frederick National Laboratory for Cancer Research (Leidos) or XpressBio extended range kit and performed according to manufacturer’s instructions. Protein concentration in cell lysates was quantified by Bradford assay and equal amounts of protein run on 7, 10, 12, or 14% SDS-PAGE, depending on the protein of interest. Following transfer to PVDF (BioRad or Perkin-Elmer), blots were blocked in either 5% Milk-PBS-T (5% Milk, 0.05% Tween-20, 1× PBS) or 3% BSA-PBS-T (3% BSA, 0.05% Tween-20, 1× PBS) prior to incubating with primary antibody (all diluted in 3% BSA-PBS-T). […] Quantification of the relative intensity of the detected bands was done using ImageLab software and normalized to corresponding bands of the loading control (GAPDH or α-Tubulin).
(In an ELISA, binding on a coated surface is turned into a signal by an enzyme label.)

As a reminder, the CC50 is the concentration that lowers cell viability or growth by half. Read a high CC50 as lower toxicity to the cells. One may read the IC50 as the midpoint of a concentration-inhibition curve. The low end stands for greater potency, the high end for weaker potency. Regarding `Cc1cc(NCc2cccnc2)n2ncc(-c3ccc(Cl)cc3)c2n1` [Compound 791, 3-(4-chlorophenyl)-5-methyl-N-(3-pyridinylmethyl)pyrazolo[1,5-a]pyrimidin-7-amine], the “reduction of Nap1 expression” value in series [1] is reported as “approximately 50%”. Further, the CC50 in series [2] and in series [3] was over 40 µM each time. For the same molecule, the concentration for half-maximal inhibition (IC50) in series [4] came out at 4.5 µM; in series [5], 1.5 µM. For the same molecule, in series [4], the “HIV-1 replication of all viruses tested” value is “significant reductions”. Also, the “doses inhibiting HIV-1 virus production that did not affect cell viability” value in series [5] (PBMCs, 2–4 donors) was under 5 µM.
Regarding `COc1ccc(C=NNC(=O)c2ccccc2O)cc1O` [Compound 892, 2-hydroxy-N′-(3-hydroxy-4-methoxybenzylidene)benzohydrazide], the “reduction of Nap1 expression” value in series [1] is given as “no effect”. The cytotoxic concentration (CC50) in series [2] and in series [3] was over 40 µM in each case. Besides, the “HIV-1 replication of all viruses tested” value in series [4] is “only modest inhibitory activity”. Also, in series [5], the concentration for half-maximal inhibition (IC50) was 2 µM.
For the molecule `O=C(NC(=S)NNC(=O)c1ccccc1O)c1ccc(-c2ccccc2)cc1` [Compound 833, N-([2-(2-hydroxybenzoyl)hydrazino]carbonothioyl}-4-biphenylcarboxamide], the “reduction of Nap1 expression” value in series [1] is reported as “more variable”. The values for the CC50 in series [2] and in series [3] were over 10 µM and at least 40 µM, respectively. Moreover, the concentration for half-maximal inhibition (IC50) in series [4] came to 1 µM; in series [5], 1.6 µM. The “HIV-1 replication of all viruses tested” value in series [4] is “significant reductions”.
